Measurements from patent publication US5840684A, “Glycopeptide antibiotic derivatives” (Eli Lilly and Company, priority 1995, dated 1998).
Converted amounts (≈) assume the structure as drawn.

Assays:
[1] = test system: Staphylococcus aureus S13E; type: cell-based
Procedure: (§1) The MIC's were determined using a standard broth micro-dilution assay.

[2] = test system: Staphylococcus aureus SA1199B; type: cell-based
Procedure: as §1

[3] = test system: Entercoccus faecium 180-1; assay: broth micro-dilution MIC; type: cell-based
Procedure: as §1

Entercoccus faecium 276 = assay: broth micro-dilution MIC; type: cell-based
Procedure: as §1

[4] = test system: Staphylococcus aureus 446; assay: broth micro-dilution MIC; type: cell-based
Procedure: as §1

[5] = test system: Staphylococcus aureus 447; assay: broth micro-dilution MIC; type: cell-based
Procedure: as §1

[6] = test system: Staphylococcus aureus 489; assay: broth micro-dilution MIC; type: cell-based
Procedure: as §1

[7] = test system: Staphylococcus aureus 491; assay: broth micro-dilution MIC; type: cell-based
Procedure: as §1

[8] = test system: Staphylococcus aureus SA1199A; assay: broth micro-dilution MIC; type: cell-based
Procedure: as §1

[9] = test system: Staphylococcus aureus SA1199; assay: broth micro-dilution MIC; type: cell-based
Procedure: as §1

[10] = test system: Staphylococcus aureus X400; assay: broth micro-dilution MIC; type: cell-based
Procedure: as §1

[11] = test system: Staphylococcus aureus X778; assay: broth micro-dilution MIC; type: cell-based
Procedure: as §1

[12] = test system: Streptococcus pyogenes C203; assay: broth micro-dilution MIC; type: cell-based
Procedure: as §1

Entercoccus faecium 180 = assay: broth micro-dilution MIC; type: cell-based; conditions: Entercoccus faecium 180
Procedure: (§2) The formula I compounds have in vitro and in vivo activity against Gram-positive pathogenic bacteria. The MIC's were determined using a standard broth micro-dilution assay.

Entercoccus faecium 2041 = assay: broth micro-dilution MIC; type: cell-based; conditions: Entercoccus faecium 2041
Procedure: as §2

[13] = test system: Enterococcus gallinarum 245; assay: broth micro-dilution MIC; type: cell-based; conditions: Enterococcus gallinarum 245
Procedure: as §2

[14] = test system: Haemophilus influenzae RD; assay: broth micro-dilution MIC; type: cell-based; conditions: Haemophilus influenzae RD
Procedure: as §2

[15] = test system: Staphylococcus epidermidis 270; assay: broth micro-dilution MIC; type: cell-based
Procedure: as §2

[16] = test system: Staphylococcus haemolyticus 105; assay: broth micro-dilution MIC; type: cell-based
Procedure: as §2

[17] = test system: Staphylococcus haemolyticus 415; assay: broth micro-dilution MIC; type: cell-based
Procedure: as §2

[18] = test system: Streptococcus pneumoniae P1; assay: broth micro-dilution MIC; type: cell-based
Procedure: as §2

[19] = test system: vancomycin-resistant enterococci; assay: broth micro-dilution, mean geometric MIC; type: cell-based, Enterococcus faecium and Enterococcus faecalis; conditions: enterococci, 24-hour incubation
[20] = test system: vancomycin-susceptible enterococci; assay: broth micro-dilution, mean geometric MIC; type: cell-based, Enterococcus faecium and Enterococcus faecalis; conditions: enterococci, 24-hour incubation

SMILES | MIC [1] | MIC [2] | MIC (Entercoccus faecium 276) | MIC [4] | MIC [5] | MIC [6] | MIC [7] | MIC [8] | MIC [9] | MIC [10] | MIC [11] | MIC [12] | MIC (Entercoccus faecium 180) [µg/mL] | MIC (Entercoccus faecium 2041) | MIC [13] | MIC [14] [µg/mL] | MIC [15] | MIC [16] | MIC [17] | MIC [18] | other results
CNC(CC(C)C)C(=O)NC1C(=O)NC(CC(N)=O)C(=O)NC2C(=O)NC3C(=O)NC(C(=O)NC(C(=O)O)c4cc(O)cc(O)c4-c4cc3ccc4O)C(OC3CC(C)(N)C(O)C(C)O3)c3ccc(c(Cl)c3)Oc3cc2cc(c3OC2OC(CO)C(O)C(O)C2OC2CC(C)(NCc3c4ccccc4c(C)c4ccccc34)C(O)C(C)O2)Oc2ccc(cc2Cl)C1O (centres unmarked) [Compound 17] | 1 µg/mL (≈ 0.557 µM) | 1 µg/mL (≈ 0.557 µM) | 0.5 µg/mL (≈ 0.278 µM) | 2 µg/mL (≈ 1.11 µM) | 8 µg/mL (≈ 4.45 µM) | 1 µg/mL (≈ 0.557 µM) | 2 µg/mL (≈ 1.11 µM) | ≤ 0.06 µg/mL | 4 µg/mL (≈ 2.23 µM) | 0.5 µg/mL (≈ 0.278 µM) | 0.5 µg/mL (≈ 0.278 µM) | ≤ 0.06 µg/mL | 2 (≈ 1.11 µM) | 0.25 µg/mL (≈ 0.139 µM) | 0.5 µg/mL (≈ 0.278 µM) | 32 (≈ 17.8 µM) | 4 µg/mL (≈ 2.23 µM) | 8 µg/mL (≈ 4.45 µM) | 8 µg/mL (≈ 4.45 µM) | ≤ 0.06 µg/mL | MIC [3]: ≤ 0.06 µg/mL; mean geometric MIC, Vancomycin Resistant Strains [19]: 9.5 µg/mL; mean geometric MIC, Vancomycin Sensitive Strains [20]: 0.38 µg/mL
CNC(CC(C)C)C(=O)NC1C(=O)NC(CC(N)=O)C(=O)NC2C(=O)NC3C(=O)NC(C(=O)NC(C(=O)O)c4cc(O)cc(O)c4-c4cc3ccc4O)C(OC3CC(C)(N)C(O)C(C)O3)c3ccc(c(Cl)c3)Oc3cc2cc(c3OC2OC(CO)C(O)C(O)C2OC2CC(C)(NCc3ccc(Oc4ccc(Cl)c(Cl)c4)cc3)C(O)C(C)O2)Oc2ccc(cc2Cl)C1O (centres unmarked) [Compound 81] | 0.5 µg/mL (≈ 0.271 µM) | 1 µg/mL (≈ 0.542 µM) | ≤ 0.06 µg/mL | 2 µg/mL (≈ 1.08 µM) | 2 µg/mL (≈ 1.08 µM) | 2 µg/mL (≈ 1.08 µM) | 1 µg/mL (≈ 0.542 µM) | 0.5 µg/mL (≈ 0.271 µM) | 2 µg/mL (≈ 1.08 µM) | 1 µg/mL (≈ 0.542 µM) | 1 µg/mL (≈ 0.542 µM) | ≤ 0.06 µg/mL | ≤ 0.06 | ≤ 0.06 µg/mL | 0.25 µg/mL (≈ 0.136 µM) | 16 (≈ 8.68 µM) | 1 µg/mL (≈ 0.542 µM) | 1 µg/mL (≈ 0.542 µM) | 4 µg/mL (≈ 2.17 µM) | ≤ 0.06 µg/mL | mean geometric MIC, Vancomycin Resistant Strains [19]: 1.0 µg/mL; mean geometric MIC, Vancomycin Sensitive Strains [20]: 0.042 µg/mL
CNC(CC(C)C)C(=O)NC1C(=O)NC(CC(N)=O)C(=O)NC2C(=O)NC3C(=O)NC(C(=O)NC(C(=O)O)c4cc(O)cc(O)c4-c4cc3ccc4O)C(OC3CC(C)(N)C(O)C(C)O3)c3ccc(c(Cl)c3)Oc3cc2cc(c3OC2OC(CO)C(O)C(O)C2OC2CC(C)(NCc3c4c(cc5ccccc35)CCCC4)C(O)C(C)O2)Oc2ccc(cc2Cl)C1O (centres unmarked) [Compound 156] | 1 µg/mL (≈ 0.56 µM) | 0.5 µg/mL (≈ 0.28 µM) | 2 µg/mL (≈ 1.12 µM) | 2 µg/mL (≈ 1.12 µM) | 1 µg/mL (≈ 0.56 µM) | 1 µg/mL (≈ 0.56 µM) | 1 µg/mL (≈ 0.56 µM) | ≤ 0.06 µg/mL | 1 µg/mL (≈ 0.56 µM) | 2 µg/mL (≈ 1.12 µM) | 1 µg/mL (≈ 0.56 µM) | ≤ 0.06 µg/mL | 1 (≈ 0.56 µM) | 0.5 µg/mL (≈ 0.28 µM) | 2 µg/mL (≈ 1.12 µM) | 2 (≈ 1.12 µM) | 1 µg/mL (≈ 0.56 µM) | 4 µg/mL (≈ 2.24 µM) | 2 µg/mL (≈ 1.12 µM) | ≤ 0.06 µg/mL | MIC [3]: ≤ 0.06 µg/mL; mean geometric MIC, Vancomycin Resistant Strains [19]: 5.7 µg/mL; mean geometric MIC, Vancomycin Sensitive Strains [20]: 0.17 µg/mL
CNC(CC(C)C)C(=O)NC1C(=O)NC(CC(N)=O)C(=O)NC2C(=O)NC3C(=O)NC(C(=O)NC(C(=O)O)c4cc(O)cc(O)c4-c4cc3ccc4O)C(OC3CC(C)(N)C(O)C(C)O3)c3ccc(c(Cl)c3)Oc3cc2cc(c3OC2OC(CO)C(O)C(O)C2OC2CC(C)(NCCCCc3ccc(OC)cc3)C(O)C(C)O2)Oc2ccc(cc2Cl)C1O (centres unmarked) [Compound 172] | ≤ 0.06 µg/mL | ≤ 0.06 µg/mL | 0.125 µg/mL (≈ 0.0712 µM) | 4 µg/mL (≈ 2.28 µM) | 0.5 µg/mL (≈ 0.285 µM) | 0.5 µg/mL (≈ 0.285 µM) | 0.5 µg/mL (≈ 0.285 µM) | ≤ 0.06 µg/mL | 1 µg/mL (≈ 0.57 µM) | 0.5 µg/mL (≈ 0.285 µM) | 2 µg/mL (≈ 1.14 µM) | ≤ 0.06 µg/mL | 0.5 (≈ 0.285 µM) | ≤ 0.06 µg/mL | 2 µg/mL (≈ 1.14 µM) | 32 (≈ 18.2 µM) | 0.5 µg/mL (≈ 0.285 µM) | 0.25 µg/mL (≈ 0.142 µM) | 2 µg/mL (≈ 1.14 µM) | ≤ 0.06 µg/mL | MIC [3]: ≤ 0.06 µg/mL; mean geometric MIC, Vancomycin Resistant Strains [19]: 3.4 µg/mL; mean geometric MIC, Vancomycin Sensitive Strains [20]: 0.13 µg/mL
CNC(CC(C)C)C(=O)NC1C(=O)NC(CC(N)=O)C(=O)NC2C(=O)NC3C(=O)NC(C(=O)NC(C(=O)O)c4cc(O)cc(O)c4-c4cc3ccc4O)C(OC3CC(C)(N)C(O)C(C)O3)c3ccc(c(Cl)c3)Oc3cc2cc(c3OC2OC(CO)C(O)C(O)C2OC2CC(C)(NCc3ccc(-c4ccccc4)cc3)C(O)C(C)O2)Oc2ccc(cc2)C1O (centres unmarked) [Compound 185] | ≤ .06 µg/mL | ≤ .06 µg/mL | ≤ .06 µg/mL | ≤ .06 µg/mL | ≤ .06 µg/mL | ≤ .06 µg/mL | ≤ .06 µg/mL | ≤ .06 µg/mL | ≤ .06 µg/mL | ≤ .06 µg/mL | ≤ .06 µg/mL | ≤ .06 µg/mL | 0.125 (≈ 0.0725 µM) | ≤ .06 µg/mL | ≤ .06 µg/mL | 8 (≈ 4.64 µM) | ≤ .06 µg/mL | ≤ .06 µg/mL | ≤ .06 µg/mL | ≤ .06 µg/mL | MIC [3]: ≤ .06 µg/mL; mean geometric MIC, Vancomycin Resistant Strains [19]: 4.7 µg/mL; mean geometric MIC, Vancomycin Sensitive Strains [20]: 0.060 µg/mL
CNC(CC(C)C)C(=O)NC1C(=O)NC(CC(N)=O)C(=O)NC2C(=O)NC3C(=O)NC(C(=O)NC(C(=O)O)c4cc(O)cc(O)c4-c4cc3ccc4O)C(OC3CC(C)(N)C(O)C(C)O3)c3ccc(c(Cl)c3)Oc3cc2cc(c3OC2OC(CO)C(O)C(O)C2OC2CC(C)(NCCCCCCCCOc3ccccc3)C(O)C(C)O2)Oc2ccc(cc2Cl)C1O (centres unmarked) [Compound 195] | 2 µg/mL (≈ 1.11 µM) | 1 µg/mL (≈ 0.557 µM) | 0.25 µg/mL (≈ 0.139 µM) | 0.5 µg/mL (≈ 0.278 µM) | 1 µg/mL (≈ 0.557 µM) | 1 µg/mL (≈ 0.557 µM) | 0.5 µg/mL (≈ 0.278 µM) | ≤ 0.06 µg/mL | 0.5 µg/mL (≈ 0.278 µM) | 2 µg/mL (≈ 1.11 µM) | 0.5 µg/mL (≈ 0.278 µM) | ≤ 0.06 µg/mL | 0.5 (≈ 0.278 µM) | ≤ 0.06 µg/mL | 4 µg/mL (≈ 2.23 µM) | 32 (≈ 17.8 µM) | 0.25 µg/mL (≈ 0.139 µM) | 1 µg/mL (≈ 0.557 µM) | 4 µg/mL (≈ 2.23 µM) | ≤ 0.06 µg/mL | MIC [3]: ≤ 0.06 µg/mL; mean geometric MIC, Vancomycin Resistant Strains [19]: 2.0 µg/mL; mean geometric MIC, Vancomycin Sensitive Strains [20]: 0.042 µg/mL
